Assay [1] deals with PAXF1657 control empty vector cell line. In words: 7-day proliferation assay, PAXF1657 control empty vector cell line (Example 9). It counts as cell-based. Particulars: 168 h; Cell Line: PAXF1657 empty vector (EV) cell line; 7-day; read-out: C: 7-day proliferation assay: IC50 GeoMean. The gist of the method: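 Viability by CellTiter-Glo after 7 days at 37° C., with compound-containing media replaced on day 3. Cells (500/well, RPMI1640 + 10% FBS) were PAXF1657 pairs: GRK2 overexpression vs empty vector, or CRISPR GRK2 knockout vs non-targeting clones; doses 30 μM-0.0002 μM final, 10 points, 0.3% DMSO.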

For the next assay, the target named is T1, GRK2 (Homo sapiens, UniProt P25098).
T1 construct: purchased SignalChem A14-10G
T1 sequence (P25098 1-689): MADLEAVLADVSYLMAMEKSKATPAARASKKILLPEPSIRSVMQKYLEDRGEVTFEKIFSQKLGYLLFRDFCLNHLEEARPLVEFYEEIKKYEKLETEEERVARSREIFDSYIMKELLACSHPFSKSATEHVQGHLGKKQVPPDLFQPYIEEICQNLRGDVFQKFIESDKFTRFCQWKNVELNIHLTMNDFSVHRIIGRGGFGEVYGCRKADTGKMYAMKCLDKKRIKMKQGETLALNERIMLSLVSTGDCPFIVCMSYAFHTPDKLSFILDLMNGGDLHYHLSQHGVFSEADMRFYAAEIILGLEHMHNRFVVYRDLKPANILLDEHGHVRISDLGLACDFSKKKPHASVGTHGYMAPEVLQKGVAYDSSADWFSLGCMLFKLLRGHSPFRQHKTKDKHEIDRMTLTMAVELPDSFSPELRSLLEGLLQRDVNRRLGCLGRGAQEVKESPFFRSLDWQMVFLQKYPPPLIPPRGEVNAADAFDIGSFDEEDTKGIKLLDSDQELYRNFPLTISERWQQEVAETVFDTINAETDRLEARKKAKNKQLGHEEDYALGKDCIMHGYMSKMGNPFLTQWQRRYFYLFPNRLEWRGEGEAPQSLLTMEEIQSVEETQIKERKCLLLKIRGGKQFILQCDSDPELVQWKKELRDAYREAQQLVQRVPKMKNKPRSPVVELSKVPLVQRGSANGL
The assay can be described thus: ADPGlo GRK2 Inhibition Assay (Example 8). To be noted: ADPGlo GRK2 enzyme assay; read-out: A: Enzymatic GRK2: IC50 (nM) (Example 8). It is filed as biochemical. The gist of the method: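 GRK2 (15 nM 2× enzyme solution) was preincubated 15 min with compound, then reacted 180 min at room temperature with 2× mix of 20 μM ATP plus GRKtide in HEPES pH 7.5, MgCl2, Tween-20, DTT. ADP was detected by ADP-Glo luminescence. Percent inhibition was normalised to enzyme and no-enzyme controls, with dose-response curves from threefold dilutions starting at 100 μM.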

A value given as a limit tells only on which side of the number the result lay.

For `COc1ccc(CNC(=O)c2cccc(NCc3nnc(-c4ccncn4)n3C)c2)c(OC)n1`, the IC50 in assay [1] stood at 797 nM; at GRK2, 37.2 nM.

As to `Cn1c(CNc2cccc(C(=O)NC3C(=O)NCc4ccccc43)c2)nnc1-c1ccncn1` (stereo not shown), the IC50 is > 30000 nM in assay [1] and 38.1 nM at GRK2.

As to `Cn1c(CNc2cccc(C(=O)NCc3cc(S(C)(=O)=O)ccc3F)c2)nnc1-c1ccncn1`, the IC50 in assay [1] was > 16000 nM; on GRK2, 52 nM.

With `Cc1nccn1-c1ncccc1CNC(=O)c1cccc(NCc2nnc(-c3ccncn3)n2C)c1`, the figures for the IC50 (in assay [1]; on GRK2) were > 25800 nM and 58.8 nM, respectively.

With `Cn1c(CNc2cccc(C(=O)NCc3ccccc3N3CCOCC3)c2)nnc1-c1ccncn1`, the IC50 in assay [1] worked out at 3250 nM; at GRK2 it was 50 nM.

Turning to `Cn1c(CNc2cccc(C(=O)NCc3c(F)cccc3NS(C)(=O)=O)c2)nnc1-c1ccncn1`, the results for the IC50 (in assay [1]; at GRK2) were 3250 nM and 9.42 nM, respectively.

Regarding `CC(C)NS(=O)(=O)c1ccccc1CNC(=O)c1cccc(NCc2nnc(-c3ccncn3)n2C)c1`, the results for the IC50 (in assay [1]; on GRK2) were > 15900 nM and 65.8 nM, respectively.

On to `Cn1c(CNc2cccc(C(=O)NCc3ccccc3S(=O)(=O)NC(C)(C)C)c2)nnc1-c1ccncn1`, for which the results for the IC50 (in assay [1]; on GRK2) were 4290 nM and 54 nM, respectively.

With `Cn1c(CNc2cccc(C(=O)NCc3ccncc3Br)c2)nnc1-c1ccncn1`, the IC50 was determined as 633 nM in assay [1] and 13.8 nM on GRK2.

As for `Cn1c(CNc2cccc(C(=O)NCc3ccccc3CO)c2)nnc1-c1ccncn1`, the IC50 turned out to be 1560 nM in assay [1] and 18.4 nM on GRK2.

On to `Cc1ccnc(CNC(=O)c2cccc(NCc3nnc(-c4ccncn4)n3C)c2)c1F`, for which the IC50 in assay [1] was > 30000 nM; at GRK2, 50.2 nM.

Regarding `COc1ccncc1CNC(=O)c1cccc(NCc2nnc(-c3ccncn3)n2C)c1`, the IC50 in assay [1] was 5090 nM; on GRK2, 28.1 nM.

Take `CCc1cccnc1CNC(=O)c1cccc(NCc2nnc(-c3ccncn3)n2C)c1`: the IC50 in assay [1] turned out to be 4510 nM; at GRK2 it was 22.6 nM.

Take `CN(C)c1ncccc1CNC(=O)c1cccc(NCc2nnc(-c3ccncn3)n2C)c1`: the IC50 in assay [1] was 1160 nM; on GRK2 it was 46.1 nM.

Take `COc1nccc(C)c1CNC(=O)c1cccc(NCc2nnc(-c3ccncn3)n2C)c1`: the IC50 is 930 nM in assay [1] and 37.3 nM on GRK2.

As for `COc1ccc(CNC(=O)c2cccc(NCc3nnc(-c4ccncn4)n3C)c2)c(C)n1`, the IC50 in assay [1] was > 30000 nM; on GRK2, 28.5 nM.

Turning to `COc1ccccc1C(C#N)NC(=O)c1cccc(NCc2nnc(-c3ccncn3)n2C)c1` (stereo not shown), the IC50 in assay [1] amounted to 468 nM; at GRK2, 6.03 nM.

Take `Cn1c(CNc2cccc(C(=O)NC3CS(=O)(=O)c4ccccc43)c2)nnc1-c1ccncn1` (stereo not shown): the IC50 in assay [1] stood at 1440 nM; on GRK2, 20.2 nM.

For the molecule `CN1Cc2ccccc2C(NC(=O)c2cccc(NCc3nnc(-c4ccncn4)n3C)c2)C1` (stereo not shown), the IC50 is 7670 nM in assay [1] and 45.9 nM on GRK2.

Take `Cn1c(CNc2cccc(C(=O)NCc3c(F)ccc4[nH]cnc34)c2)nnc1-c1ccncn1`: the IC50 was 22600 nM in assay [1] and 19.2 nM on GRK2.

For the molecule `Cn1c(CNc2cccc(C(=O)NCc3ccccc3-n3ccnc3)c2)nnc1-c1ccncn1`, the IC50 came to 1150 nM in assay [1] and 30 nM at GRK2.

Consider `CN(C)S(=O)(=O)c1ccccc1CNC(=O)c1cccc(NCc2nnc(-c3ccncn3)n2C)c1`, for which the IC50 in assay [1] came to 21500 nM; at GRK2, 47.2 nM.

As for `Cn1c(CNc2cccc(C(=O)NCc3ccccc3Cn3cncn3)c2)nnc1-c1ccncn1`, the figures for the IC50 (in assay [1]; at GRK2) were 7410 nM and 55.7 nM, respectively.

`CCC(NC(=O)c1cccc(NCc2nnc(-c3ccncn3)n2C)c1)c1ccccc1OCC(=O)NC` (stereo not shown): the IC50 in assay [1] is > 27800 nM; at GRK2, 67.2 nM.

Regarding `Cn1c(CNc2cccc(C(=O)NCc3ccncc3-c3cc[nH]n3)c2)nnc1-c1ccncn1`, the IC50 in assay [1] was > 23300 nM; at GRK2, 53.5 nM.

On to `Cn1c(CNc2cccc(C(=O)NCc3cccnc3OC(F)F)c2)nnc1-c1ccncn1`, for which the IC50 in assay [1] was found to be 1440 nM; on GRK2, 16.7 nM.

`Cc1ncncc1[C@@H](C)NC(=O)c1cccc(NCc2nnc(-c3ccncn3)n2C)c1`: the results for the IC50 (in assay [1]; on GRK2) were > 30000 nM and 15.5 nM, respectively.

For `Cn1c(CNc2cccc(C(=O)NC3CC(=O)c4ccccc43)c2)nnc1-c1ccncn1` (stereo not shown), the IC50 turned out to be 867 nM in assay [1] and 19 nM at GRK2.

For `Cn1c(CNc2cccc(C(=O)NC3CCOc4ncccc43)c2)nnc1-c1ccncn1` (stereo not shown), the IC50 was > 30000 nM in assay [1] and 56.7 nM on GRK2.

For the molecule `Cc1cc(C)c(CNC(=O)c2cccc(NCc3nnc(-c4ccncn4)n3C)c2)c(=O)[nH]1`, the IC50 in assay [1] was > 30000 nM; on GRK2 it was 14.9 nM.

`Cc1cc(CO)cc(C)c1CNC(=O)c1cccc(NCc2nnc(-c3ccncn3)n2C)c1`: the IC50 was found to be 738 nM in assay [1] and 10.8 nM on GRK2.

As for `Cc1ccc(C)c(CNC(=O)c2cccc(NCc3nnc(-c4ccncn4)n3C)c2)n1`, the results for the IC50 (in assay [1]; at GRK2) were > 30000 nM and 11.2 nM, respectively.

Take `Cn1c(CNc2cccc(C(=O)NCc3cccc4c3CCNC4)c2)nnc1-c1ccncn1`: the IC50 in assay [1] was > 30000 nM; at GRK2 it was 18.4 nM.

As for `Cn1c(CNc2cccc(C(=O)NCc3cccc4c3CCOC4)c2)nnc1-c1ccncn1`, the IC50 in assay [1] is > 30000 nM; at GRK2, 8.5 nM.

`Cn1c(CNc2cccc(C(=O)NCc3ccccc3CN3CCOCC3)c2)nnc1-c1ccncn1`: the IC50 in assay [1] is 6710 nM; on GRK2, 71.5 nM.

Take `CN(C)CCNc1ccccc1CNC(=O)c1cccc(NCc2nnc(-c3ccncn3)n2C)c1`: the IC50 in assay [1] is > 30000 nM; at GRK2, 53.3 nM.

Turning to `Cn1c(CNc2cccc(C(=O)NCc3ccccc3NS(C)(=O)=O)c2)nnc1-c1ccncn1`, the results for the IC50 (in assay [1]; at GRK2) were > 30000 nM and 32.1 nM, respectively.

Take `CN(CCO)S(=O)(=O)c1ccccc1CNC(=O)c1cccc(NCc2nnc(-c3ccncn3)n2C)c1`: the IC50 is > 11800 nM in assay [1] and 42 nM at GRK2.

For the molecule `CNc1ncccc1CNC(=O)c1cccc(NCc2nnc(-c3ccncn3)n2C)c1`, the IC50 in assay [1] was 1630 nM; at GRK2 it was 18.3 nM.

`Cn1c(CNc2cccc(C(=O)NCc3ncccc3Cl)c2)nnc1-c1ccncn1`: the IC50 in assay [1] is > 16400 nM; at GRK2 it was 48.2 nM.

On to `Cn1c(CNc2cccc(C(=O)NCc3cnn(CCF)c3)c2)nnc1-c1ccncn1`, for which the IC50 is > 5600 nM in assay [1] and 82.9 nM on GRK2.

Take `Cn1c(CNc2cccc(C(=O)NCc3ccc(C(F)F)cc3)c2)nnc1-c1ccncn1`: the IC50 was > 13100 nM in assay [1] and 64.2 nM at GRK2.

With `COc1cccc(CNC(=O)c2cccc(NCc3nnc(-c4ccncn4)n3C)c2)c1C`, the IC50 in assay [1] is > 12600 nM; on GRK2 it was 12.6 nM.

`Cn1c(CNc2cccc(C(=O)NCc3cnn4c3CCCC4)c2)nnc1-c1ccncn1`: the IC50 in assay [1] was > 24800 nM; at GRK2, 71.6 nM.

For the molecule `Cn1c(CNc2cccc(C(=O)NCc3ccc(F)c(F)c3)c2)nnc1-c1ccncn1`, the figures for the IC50 (in assay [1]; on GRK2) were 9330 nM and 63.7 nM, respectively.

In the case of `CCOc1cccc(CNC(=O)c2cccc(NCc3nnc(-c4ccncn4)n3C)c2)c1`, the results for the IC50 (in assay [1]; on GRK2) were > 30000 nM and 73.6 nM, respectively.

Take `CCOc1ccc(CNC(=O)c2cccc(NCc3nnc(-c4ccncn4)n3C)c2)cc1`: the values for the IC50 (in assay [1]; on GRK2) were 1200 nM and 35.3 nM, respectively.

The values are drawn from patent US20230009608A1, “GRK2 INHIBITORS AND USES THEREOF” (Cygnal Therapeutics, Inc., priority 2020, published 2023).
